These results are taken from patent US20230393122A1 (priority 2022, published 2023).

Assay type in all cases: cell-based
Assay [1] relates to SARS-CoV-2 Delta variant. The assay is described as follows: Viral load reduction assay in EPSC-derived eSTB cells (qRT-PCR of supernatant viral copies). The following applies: for IC50: read-out: IC50 for Delta variant in eSTBs.
Assay [2] has as its system SARS-CoV-2 Omicron variant. The description is as above. The note with it: for IC50: read-out: IC50 for Omicron variant in eSTBs.
Assay [3] concerns SARS-CoV-2 Omicron variant. The assay is described as follows: Viral load reduction assay in naïve-eSTB cells. The note with it: compared with EPSC-eSTBs.
In assay [4] the test system is SARS-CoV-2 Delta variant. As to the kind of experiment: Viral load reduction assay in naïve-eSTB cells. The following applies: compared with EPSC-eSTBs.
The mark [5] stands for this setting: Severe acute respiratory syndrome coronavirus 2, 48 h.

Like-named read-outs stand apart in the source and are kept apart here.

Consider `CC(C)C[C@H](NC(=O)OCc1ccccc1)C(=O)N[C@@H](CC1CCNC1=O)C(O)S(=O)(=O)O` (some centres unmarked) [GC376], for which the values for the IC50 (in the assay with SARS-CoV-2 Delta variant [1]; in assay [2]) were 25.5 ± 3.2 nM and 31.4 ± 4.1 nM, respectively.
As to `CC(C)C[C@H](NC(=O)OCc1ccccc1)C(=O)N[C@@H](C[C@@H]1CCNC1=O)C(O)S(=O)(=O)[O-].[Na+]` (some centres unmarked) [GC376], the “Viral copy in the supernatant, Delta (FIG. 17B)” value in the assay on SARS-CoV-2 Delta variant [1] (EPSC-derived eSTB cells) was “dose-dependent inhibition”. Besides, the “IC50 against Omicron variant in naïve-eSTBs” value in assay [3] is recorded as “similarly low”. In addition, the “Viral copy in the supernatant, Omicron (FIG. 17B)” value in assay [2] (EPSC-derived eSTB cells) was “dose-dependent inhibition”. For the same compound, the “IC50 against Delta variant in naïve-eSTBs” value with SARS-CoV-2 Delta variant [4] is “similarly low”.
Consider `CCC(CC)COC(=O)[C@H](C)N[P@](=O)(OC[C@H]1O[C@@](C#N)(c2ccc3c(N)ncnn23)[C@H](O)[C@@H]1O)Oc1ccccc1` [remdesivir], for which the IC50 in the assay on SARS-CoV-2 Delta variant [1] (setting [5]) was found to be 5.5 ± 1.2 nM; in assay [2] (setting [5]) it was 4.1 ± 1.5 nM.
